This test has as its system White Leghorn chickens. The format is in vivo. The settings on record: oral gavage, 100 μg human IgG together with the adjuvant, two hens per group.

With `CCCCCCCCCCCCCCCCCC[N+](C)(C)CCCCCCCCCCCCCCCCCC.[Br-]` [DDA, Dimethyl dioctadecyl ammonium bromide], the “titers (antibodies in egg yolk)” value is recorded as “no or very low titers”.
With CTB the entry was “One of four chickens in the CTB-group showed high titers”.

These data come from patent US20040241310A1, “Method of producing antibodies ex-vivo” (priority 2001, published 2004).
